Experimental data: article PMC3151248, “High-Throughput Identification of Potential Minor Histocompatibility Antigens by MHC Tetramer-Based Screening: Feasibility and Limitations” (PLoS ONE, 2011)
Peptide text beside a SMILES is read from it.

The compounds below were run on pMHC tetramer positive T-cell lines. Settings: 18 h.
Method: To examine the ligand sensitivity of the generated peptide specific cell lines, INF-γ production was measured after stimulation with T2 cells that were loaded with a range of peptide concentrations (Figure 4). In this assay (performed for 8 representative cell lines), peptide concentrations required for T-cell recognition were compared to those required for a previously identified T-cell clone that is specific for the HMHA-1H epitope.
HLA A2^+ T2 cells were pulsed with specific MiHA peptide. Peptide concentrations were titrated in 10-fold dilution steps starting from 10ug/ml. T-cell reactivity was analyzed by cytokine secretion in a standard IFN γ ELISA. Data are presented as cytokine concentration. Shown are eight representative generated T-cell lines and a high affinity control clone specific for HMHA-1H (open square).
MiHA specific T-cell lines (1×10^4) were stimulated with HLA-A2^+ T2 cells, EBV-LCLs or T-cell blasts (2,5×10^4) in 96 well plates for 18 h at 37°C and 5% CO2. Peptide pulsing was performed by incubating stimulator cells for 1 h with synthetic peptides (1 µg/ml) in IMDM containing 2% FCS and cells were washed twice before use. Cytokine release was measured by IFN γ ELISA (Sanquin) according to the manufacturer's instructions.

| Structure (SMILES) | IC50 |
| --- | --- |
| CC[C@H](C)[C@H](NC(=O)[C@@H](N)CO)C(=O)N[C@@H](CCC(N)=O)C(=O)N[C@@H](CC(N)=O)C(=O)N[C@@H](Cc1ccc(O)cc1)C(=O)N[C@@H](Cc1c[nH]cn1)C(=O)N1CCC[C@H]1C(=O)N[C@@H](Cc1ccccc1)C(=O)N[C@@H](C)C(=O)O [P37 DOCK2SIQ] (H-SIQNYHPFA-OH) | ~500 nM |
| CC(C)C[C@H](NC(=O)[C@H](CC(C)C)NC(=O)[C@H](CC(=O)O)NC(=O)[C@H](CC(=O)O)NC(=O)[C@H](Cc1c[nH]cn1)NC(=O)[C@H](CC(C)C)NC(=O)[C@@H](N)C(C)C)C(=O)N[C@@H](CCC(=O)O)C(=O)N[C@@H](C)C(=O)O [P46 HMHA1VLH] (H-VLHDDLLEA-OH) | ~0.05 nM |
| CC(C)C[C@H](NC(=O)[C@@H]1CCCN1C(=O)[C@H](CC(C)C)NC(=O)[C@H](C)NC(=O)[C@H](C)NC(=O)[C@H](Cc1c[nH]c2ccccc12)NC(=O)[C@H](CC(C)C)NC(=O)[C@@H]1CCCN1C(=O)[C@H](CC(C)C)NC(=O)[C@H](CC(C)C)NC(=O)[C@@H](N)CCCNC(=N)N)C(=O)O [P104 ZFP36L2RLL] (H-RLLPLWAALPL-OH) | ~500 nM |
| CC[C@H](C)[C@H](N)C(=O)N[C@@H](CCSC)C(=O)N[C@@H](C)C(=O)N[C@H](C(=O)N[C@@H](CCC(=O)O)C(=O)N[C@@H](CC(C)C)C(=O)N[C@@H](C)C(=O)N[C@@H](CCC(=O)O)C(=O)N[C@@H](CC(C)C)C(=O)O)[C@@H](C)CC [P218 MAP4K1IMA] (H-IMAIELAEL-OH) | ~0.05 nM |
| CSCC[C@H](NC(=O)[C@@H](N)CO)C(=O)N[C@@H](CS)C(=O)N[C@@H](CCCNC(=N)N)C(=O)N[C@@H](Cc1ccccc1)C(=O)N[C@@H](CO)C(=O)N1CCC[C@H]1C(=O)N[C@@H](CC(C)C)C(=O)N[C@H](C(=O)N[C@@H](CC(C)C)C(=O)O)[C@@H](C)O [P309 HSPA6SMC] (H-SMCRFSPLTL-OH) | ~5 nM |

Same assay, conditions: read-out: IC50, peptide concentration required for T-cell recognition (IFN γ production); HLA-A2+ T2 cells pulsed with peptide, 10-fold dilution steps from 10ug/ml; 18 h; IFN γ ELISA; value given for the group of cell lines

| Structure (SMILES) | IC50 |
| --- | --- |
| CC[C@H](C)[C@H](NC(=O)[C@H](CC(=O)O)NC(=O)[C@H](CCSC)NC(=O)CNC(=O)[C@H](Cc1ccccc1)NC(=O)[C@H](CC(C)C)NC(=O)[C@H](CCC(=O)O)NC(=O)[C@H](Cc1c[nH]cn1)NC(=O)[C@H](CC(C)C)NC(=O)[C@@H](NC(=O)[C@@H](N)CCCCN)C(C)C)C(=O)O [P91 FLT3KVL] (H-KVLHELFGMDI-OH) | ~5 nM |
| CSCC[C@H](NC(=O)[C@@H](N)CCCCN)C(=O)N[C@@H](CC(N)=O)C(=O)N[C@H](C(=O)N[C@@H](Cc1ccccc1)C(=O)N[C@@H](CC(=O)O)C(=O)N[C@H](C(=O)N[C@@H](CC(N)=O)C(=O)N[C@@H](CC(C)C)C(=O)O)[C@@H](C)O)C(C)C [P203 ATP2A3KMN] (H-KMNVFDTNL-OH) | ~500 nM |
